Reference: patent US8314255B2, “Use of phthalimide and/or sulphonamide derivatives in the treatment of diseases which require reducing the TNF- α levels and an exogenous source of nitric oxide, phthalimide derivatives, sulphonamide derivatives, and a method for obtaining a sulphonamide derivative” (priority 2007, dated 2012)

Legend:
[1] = tested on: Salmonella typhimurium TA102; assay: AMES test, mutagenic evaluation in Salmonella typhimurium TA102 strain with/without metabolic activation (S9); format: cell-based
Experimental: (§1) The procedure was firstly developed by (MARON, D. M. and AMES, B. N. Mut. Res. v. 113, pp. 173-215, 1983)
(§2) For this assay, Salmonella typhimurium TA100 and TA102 strains from the mutagenicity laboratory of the “Faculdade de Ciências Farmacêuticas—UNESP Araraquara” were used. Such strains have the following characteristics: (AMES, 1983)
(§3) The positive controls are mutagenic compounds specific for each strain and test condition, with 25 μL/plate of sodium azide (1.25 μg/plate) and 100 μL of mitomycin (0.5 μg/plate) being the controls for TA100 and TA102, respectively, in the absence of metabolic activation. For assays with metabolic activation, the positive control for TA100 is 50 μL 2-antramine (1.25 μg/plate) and for TA102 it is 50 μL 2-aminofluorene (1.25 μg/plate).
(§4) The preincubation method was used.
(§5) In laminar flow, Salmonella typhimurium (TA100 and TA 102) strains were inoculated individually with a platinum loop, in the respective nutrient broths and maintained at 37° C., under constant stirring (160 rpm) during 14 hours, in order to achieve a density of 1 to 2×10^9 bacteria/mL.
(§6) Different concentrations of the compounds were added into 100 μL of 0.2M phosphate buffer pH 7.4 (or 500 μL of the mixture S9 in metabolic activation assays) and incubated for 20-30 minutes at 37° C. Solutions containing the compounds had DMSO as the solvent. Thereafter, 2 mL of top agar supplemented with traces of histidine and biotin was added, homogenized and plated in glycosylated minimum medium. After solidification of the top agar, the plates were incubated for 48 hours at a 37° C. Then, the counting of the number of revertant colonies per plate was performed. All tested concentrations, positive and negative controls were run in triplicate.
(§7) After 48 hours, the revertant colonies were counted manually, and the protoCOL Colony Counter Version 3.15.630 (1998-2001) SYNBIOSIS LTD system was used for the positive control.
(§8) The final data obtained from the assay was analyzed using the statistical software Salanal (Salmonella Assay Analysis) version 1.0 from the Research Triangle Institute, RTP, North Carolina, USA. Such software allows the dose-response effect to be evaluated by means of analysis of variance (ANOVA-test F) computations between the measurement of the number of revertants at the different tested concentrations (doses) and the negative control, followed by a linear regression. The software model chosen for analyzing the data was Bernstein's (BERNSTEIN, L. et al. Mutat. Res. v. 97, p. 267-281, 1982). The slope of the straight line from the linear portion of the dose-response curve is also provided by this software and corresponds to the number of revertants induced per measurement unit of the analyzed sample.
(§9) From the results, the mutagenicity ratio (MR) was computed for each analyzed dose from each compound. MR is given by the following equation:
(§10) MR=average number of revertants per test plate (spontaneous+induced revertants) […] average number of revertants per plate of the negative control (spontaneous revertants)
(§11) The spontaneous growing means that the number of revertants which developed on the plate, regardless of being induced or not, wherein values higher or equal to 2 are considered as a positive response (VALENT, G. V. et al. Env. Toxicol. Water Quality. v. 8, p. 371-381, 1993).
(§12) The mutagenicity test with metabolic activation system was performed with a microsomal fraction S9 (S9 mix) prepared from a liver homogenizate from Sprague Dawley rats, previously treated with Aroclor 1254, acquired in the freeze-dried form.
(§13) The procedure for this assay is the same, however, instead of the buffer, 500 μL of the S9 mixture should be added.
(§14) The S9 mixture has a viability of 4 hours from preparation when put on ice. The plates are then incubated for 48 hours at 37° C. After the required time has elapsed, the counting of the revertant colonies was carried out. All tested concentrations, positive and negative controls were run in triplicate.

[2] = tested on: Salmonella typhimurium TA100; assay: AMES test, mutagenic evaluation in Salmonella typhimurium TA100 strain with/without metabolic activation (S9); format: cell-based
Experimental: as §1, §2, §3, §4, §5, §6, §7, §8, §9, §10, §11, §12, §13, §14

O=C1c2ccccc2C(=O)N1c1ccc(CO[N+](=O)[O-])cc1 [ID, 4-(1,3-dioxo-1,3-dihydro-2H-isoindol-2-yl)benzyl nitrate]
mutagenicity ratio (MR) ([1]; TA 102, +S9, 0.224 μmol/plate): 1.09 | number of revertants per plate ([1]; TA 102, +S9, 0.224 μmol/plate): 405.7 ± 13 revertants/plate | mutagenicity ratio (MR) ([1]; TA 102, +S9, 0.488 μmol/plate): 1.16 | number of revertants per plate ([1]; TA 102, +S9, 0.488 μmol/plate): 434.7 ± 21 revertants/plate | mutagenicity ratio (MR) ([1]; TA 102, +S9, 0.896 μmol/plate): 0.99 | number of revertants per plate ([1]; TA 102, +S9, 0.896 μmol/plate): 370 ± 6 revertants/plate | mutagenicity ratio (MR) ([1]; TA 102, +S9, 1.8 μmol/plate): 1.06 | number of revertants per plate ([1]; TA 102, +S9, 1.8 μmol/plate): 397.3 ± 9.3 revertants/plate | mutagenicity ratio (MR) ([1]; TA 102, +S9, 3.58 μmol/plate): 1.14 | number of revertants per plate ([1]; TA 102, +S9, 3.58 μmol/plate): 427.3 ± 5 revertants/plate | mutagenicity ratio (MR) ([1]; TA 102, −S9, 0.224 μmol/plate): 1.31 | number of revertants per plate ([1]; TA 102, −S9, 0.224 μmol/plate): 340.3 ± 9.7 revertants/plate | mutagenicity ratio (MR) ([1]; TA 102, −S9, 0.488 μmol/plate): 1.43 | number of revertants per plate ([1]; TA 102, −S9, 0.488 μmol/plate): 373.5 ± 21 revertants/plate | mutagenicity ratio (MR) ([1]; TA 102, −S9, 0.896 μmol/plate): 1.5 | number of revertants per plate ([1]; TA 102, −S9, 0.896 μmol/plate): 391.2 ± 6.3 revertants/plate | mutagenicity ratio (MR) ([1]; TA 102, −S9, 1.8 μmol/plate): 1.87 | number of revertants per plate ([1]; TA 102, −S9, 1.8 μmol/plate): 486.8 ± 20 revertants/plate | mutagenicity ratio (MR) ([1]; TA 102, −S9, 3.58 μmol/plate): 1.62 | number of revertants per plate ([1]; TA 102, −S9, 3.58 μmol/plate): 420 ± 8.6 revertants/plate | mutagenicity ratio (MR) ([2]; TA 100, +S9, 0.224 μmol/plate): 1.21 | number of revertants per plate ([2]; TA 100, +S9, 0.224 μmol/plate): 157 ± 13 revertants/plate | mutagenicity ratio (MR) ([2]; TA 100, +S9, 0.488 μmol/plate): 1.42 | number of revertants per plate ([2]; TA 100, +S9, 0.488 μmol/plate): 184.7 ± 16 revertants/plate | mutagenicity ratio (MR) ([2]; TA 100, +S9, 0.896 μmol/plate): 1.67 | number of revertants per plate ([2]; TA 100, +S9, 0.896 μmol/plate): 216.7 ± 18 revertants/plate | mutagenicity ratio (MR) ([2]; TA 100, +S9, 1.8 μmol/plate): 1.49 | number of revertants per plate ([2]; TA 100, +S9, 1.8 μmol/plate): 192.7 ± 16 revertants/plate | mutagenicity ratio (MR) ([2]; TA 100, +S9, 3.58 μmol/plate): 2.03 | number of revertants per plate ([2]; TA 100, +S9, 3.58 μmol/plate): 263 ± 12.3 revertants/plate | mutagenicity ratio (MR) ([2]; TA 100, −S9, 0.224 μmol/plate): 1.27 | number of revertants per plate ([2]; TA 100, −S9, 0.224 μmol/plate): 228 ± 18 revertants/plate | mutagenicity ratio (MR) ([2]; TA 100, −S9, 0.488 μmol/plate): 1.33 | number of revertants per plate ([2]; TA 100, −S9, 0.488 μmol/plate): 239 ± 11.5 revertants/plate | mutagenicity ratio (MR) ([2]; TA 100, −S9, 0.896 μmol/plate): 1.29 | number of revertants per plate ([2]; TA 100, −S9, 0.896 μmol/plate): 231 ± 20.2 revertants/plate | mutagenicity ratio (MR) ([2]; TA 100, −S9, 1.8 μmol/plate): 1.18 | number of revertants per plate ([2]; TA 100, −S9, 1.8 μmol/plate): 212.3 ± 17 revertants/plate | mutagenicity ratio (MR) ([2]; TA 100, −S9, 3.58 μmol/plate): 1.94 | number of revertants per plate ([2]; TA 100, −S9, 3.58 μmol/plate): 349 ± 5.6 revertants/plate

O=C1c2ccccc2C(=O)N1CCO[N+](=O)[O-] [IB, 2-(1,3-dioxo-1,3-dihydro-2H-isoindol-2-yl)ethyl nitrate]
mutagenicity ratio (MR) ([1]; TA 102, +S9, 0.01 μmol/plate): 1.13 | number of revertants per plate ([1]; TA 102, +S9, 0.01 μmol/plate): 249 ± 11.7 revertants/plate | mutagenicity ratio (MR) ([1]; TA 102, +S9, 0.021 μmol/plate): 1.22 | number of revertants per plate ([1]; TA 102, +S9, 0.021 μmol/plate): 269 ± 10.6 revertants/plate | mutagenicity ratio (MR) ([1]; TA 102, +S9, 0.042 μmol/plate): 1.09 | number of revertants per plate ([1]; TA 102, +S9, 0.042 μmol/plate): 239 ± 22.5 revertants/plate | mutagenicity ratio (MR) ([1]; TA 102, +S9, 0.085 μmol/plate): 1.12 | number of revertants per plate ([1]; TA 102, +S9, 0.085 μmol/plate): 247 ± 21.4 revertants/plate | mutagenicity ratio (MR) ([1]; TA 102, +S9, 0.17 μmol/plate): 0.97 | number of revertants per plate ([1]; TA 102, +S9, 0.17 μmol/plate): 214 ± 32 revertants/plate | mutagenicity ratio (MR) ([1]; TA 102, −S9, 0.01 μmol/plate): 1.22 | number of revertants per plate ([1]; TA 102, −S9, 0.01 μmol/plate): 394 ± 30 revertants/plate | mutagenicity ratio (MR) ([1]; TA 102, −S9, 0.021 μmol/plate): 1.55 | number of revertants per plate ([1]; TA 102, −S9, 0.021 μmol/plate): 452 ± 23 revertants/plate | mutagenicity ratio (MR) ([1]; TA 102, −S9, 0.042 μmol/plate): 1.25 | number of revertants per plate ([1]; TA 102, −S9, 0.042 μmol/plate): 502 ± 14 revertants/plate | mutagenicity ratio (MR) ([1]; TA 102, −S9, 0.085 μmol/plate): 1.34 | number of revertants per plate ([1]; TA 102, −S9, 0.085 μmol/plate): 405 ± 24 revertants/plate | mutagenicity ratio (MR) ([1]; TA 102, −S9, 0.17 μmol/plate): 1.54 | number of revertants per plate ([1]; TA 102, −S9, 0.17 μmol/plate): 433 ± 35.4 revertants/plate | mutagenicity ratio (MR) ([2]; TA 100, +S9, 0.01 μmol/plate): 3.4 | number of revertants per plate ([2]; TA 100, +S9, 0.01 μmol/plate): 354 ± 6.9 revertants/plate | mutagenicity ratio (MR) ([2]; TA 100, +S9, 0.021 μmol/plate): 3.22 | number of revertants per plate ([2]; TA 100, +S9, 0.021 μmol/plate): 335 ± 10.8 revertants/plate | mutagenicity ratio (MR) ([2]; TA 100, +S9, 0.042 μmol/plate): 3.8 | number of revertants per plate ([2]; TA 100, +S9, 0.042 μmol/plate): 397 ± 25.9 revertants/plate | mutagenicity ratio (MR) ([2]; TA 100, +S9, 0.085 μmol/plate): 3.8 | number of revertants per plate ([2]; TA 100, +S9, 0.085 μmol/plate): 395 ± 40.2 revertants/plate | mutagenicity ratio (MR) ([2]; TA 100, +S9, 0.17 μmol/plate): 2.5 | number of revertants per plate ([2]; TA 100, +S9, 0.17 μmol/plate): 261 ± 11 revertants/plate | mutagenicity ratio (MR) ([2]; TA 100, −S9, 0.01 μmol/plate): 1.49 | number of revertants per plate ([2]; TA 100, −S9, 0.01 μmol/plate): 171 ± 48.9 revertants/plate | mutagenicity ratio (MR) ([2]; TA 100, −S9, 0.021 μmol/plate): 1.74 | number of revertants per plate ([2]; TA 100, −S9, 0.021 μmol/plate): 200 ± 23.3 revertants/plate | mutagenicity ratio (MR) ([2]; TA 100, −S9, 0.042 μmol/plate): 1.94 | number of revertants per plate ([2]; TA 100, −S9, 0.042 μmol/plate): 223 ± 45.04 revertants/plate | mutagenicity ratio (MR) ([2]; TA 100, −S9, 0.085 μmol/plate): 1.8 | number of revertants per plate ([2]; TA 100, −S9, 0.085 μmol/plate): 206 ± 30.2 revertants/plate | mutagenicity ratio (MR) ([2]; TA 100, −S9, 0.17 μmol/plate): 1.43 | number of revertants per plate ([2]; TA 100, −S9, 0.17 μmol/plate): 165 ± 11.1 revertants/plate
